{"source": "the supplement of paper PMC10307832", "assay_in_all_cases": "relative viability (nuclei count vs DMSO), 5 days (fraction); higher = more cells survive", "key": {"[1]": {"system": "BEN", "procedure,_shortened": "(§1)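 Relative viability is defined as nuclei in treated wells over nuclei in vehicle wells. Duplicate plates were run and medians reported. Lung cancer cell lines in 1536-well plates were dosed by pin tool one day after seeding, with one drug or with a fixed anchor-drug dose plus five library-drug doses (not always all listed) in √10 steps, and nuclei were counted after 5 days.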"}, "[2]": {"system": "EKVX", "procedure,_shortened": "as §1"}, "[3]": {"system": "HARA", "procedure,_shortened": "as §1"}, "[4]": {"system": "HCC-366", "procedure,_shortened": "as §1"}, "[5]": {"system": "HCC-44", "procedure,_shortened": "as §1"}, "[6]": {"system": "HCC-827", "procedure,_shortened": "as §1"}, "[7]": {"system": "LC-2-ad", "procedure,_shortened": "as §1"}, "[8]": {"system": "LOU-NH91", "procedure,_shortened": "as §1"}, "[9]": {"system": "NCI-H1355", "procedure,_shortened": "as §1"}, "[10]": {"system": "NCI-H1437", "procedure,_shortened": "as §1"}, "[11]": {"system": "NCI-H1734", "procedure,_shortened": "as §1"}, "[12]": {"system": "NCI-H1792", "procedure,_shortened": "as §1"}, "[13]": {"system": "NCI-H2009", "procedure,_shortened": "as §1"}, "[14]": {"system": "NCI-H2087", "procedure,_shortened": "as §1"}, "[15]": {"system": "NCI-H2170", "procedure,_shortened": "as §1"}, "[16]": {"system": "NCI-H2228", "procedure,_shortened": "as §1"}, "[17]": {"system": "NCI-H2405", "procedure,_shortened": "as §1"}, "[18]": {"system": "NCI-H596", "procedure,_shortened": "as §1"}, "[19]": {"system": "NCI-H647", "procedure,_shortened": "as §1"}, "[20]": {"system": "NCI-H661", "procedure,_shortened": "as §1"}, "[21]": {"system": "SK-LU-1", "procedure,_shortened": "as §1"}, "[22]": {"system": "SK-MES-1", "procedure,_shortened": "as §1"}}, "data": [{"smiles": "COc1cc(N2CCC(C(N)=O)CC2)ccc1Nc1nc(N)c(Cl)c(Nc2ccccc2S(=O)(=O)C(C)C)n1", "note": "[HG-5-88-01] + C[C@@H](Oc1cc(-c2cnn(C3CCNCC3)c2)cnc1N)c1c(Cl)ccc(F)c1Cl [Crizotinib] (partner 1 µM)", "values": [{"measurement": "relative viability", "setting": "[1]; first compound 0.04 µM", "result": 0.975}, {"measurement": "relative viability", "setting": "[1]; first compound 0.1265 µM", "result": 0.915}, {"measurement": "relative viability", "setting": "[1]; first compound 0.4 µM", "result": 0.895}, {"measurement": "relative viability", "setting": "[1]; first compound 1.265 µM", "result": 0.625}, {"measurement": "relative viability", "setting": "[1]; first compound 4 µM", "result": 0.962}, {"measurement": "relative viability", "setting": "[2]; first compound 0.04 µM", "result": 0.989}, {"measurement": "relative viability", "setting": "[2]; first compound 0.1265 µM", "result": 0.93}, {"measurement": "relative viability", "setting": "[2]; first compound 0.4 µM", "result": 0.892}, {"measurement": "relative viability", "setting": "[2]; first compound 4 µM", "result": 0.843}, {"measurement": "relative viability", "setting": "[3]; first compound 0.04 µM", "result": 1.09}, {"measurement": "relative viability", "setting": "[3]; first compound 0.1265 µM", "result": 0.891}, {"measurement": "relative viability", "setting": "[3]; first compound 0.4 µM", "result": 1.08}, {"measurement": "relative viability", "setting": "[3]; first compound 1.265 µM", "result": 1.08}, {"measurement": "relative viability", "setting": "[3]; first compound 4 µM", "result": 0.695}, {"measurement": "relative viability", "setting": "[4]; first compound 0.04 µM", "result": 0.642}, {"measurement": "relative viability", "setting": "[4]; first compound 0.1265 µM", "result": 0.487}, {"measurement": "relative viability", "setting": "[4]; first compound 0.4 µM", "result": 0.468}, {"measurement": "relative viability", "setting": "[4]; first compound 1.265 µM", "result": 0.441}, {"measurement": "relative viability", "setting": "[4]; first compound 4 µM", "result": 0.198}, {"measurement": "relative viability", "setting": "[5]; first compound 0.04 µM", "result": 0.777}, {"measurement": "relative viability", "setting": "[5]; first compound 0.1265 µM", "result": 0.791}, {"measurement": "relative viability", "setting": "[5]; first compound 0.4 µM", "result": 0.797}, {"measurement": "relative viability", "setting": "[5]; first compound 1.265 µM", "result": 0.611}, {"measurement": "relative viability", "setting": "[5]; first compound 4 µM", "result": 0.489}, {"measurement": "relative viability", "setting": "[6]; first compound 0.04 µM", "result": 0.946}, {"measurement": "relative viability", "setting": "[6]; first compound 0.1265 µM", "result": 0.917}, {"measurement": "relative viability", "setting": "[6]; first compound 0.4 µM", "result": 0.94}, {"measurement": "relative viability", "setting": "[6]; first compound 1.265 µM", "result": 0.831}, {"measurement": "relative viability", "setting": "[6]; first compound 4 µM", "result": 0.392}, {"measurement": "relative viability", "setting": "[7]; first compound 0.04 µM", "result": 0.436}, {"measurement": "relative viability", "setting": "[7]; first compound 0.1265 µM", "result": 0.496}, {"measurement": "relative viability", "setting": "[7]; first compound 0.4 µM", "result": 0.5}, {"measurement": "relative viability", "setting": "[7]; first compound 1.265 µM", "result": 0.4}, {"measurement": "relative viability", "setting": "[7]; first compound 4 µM", "result": 0.368}, {"measurement": "relative viability", "setting": "[8]; first compound 0.04 µM", "result": 0.745}, {"measurement": "relative viability", "setting": "[8]; first compound 0.1265 µM", "result": 0.737}, {"measurement": "relative viability", "setting": "[8]; first compound 0.4 µM", "result": 0.671}, {"measurement": "relative viability", "setting": "[8]; first compound 1.265 µM", "result": 0.494}, {"measurement": "relative viability", "setting": "[8]; first compound 4 µM", "result": 0.566}, {"measurement": "relative viability", "setting": "[9]; first compound 0.04 µM", "result": 1.19}, {"measurement": "relative viability", "setting": "[9]; first compound 0.1265 µM", "result": 1.05}, {"measurement": "relative viability", "setting": "[9]; first compound 0.4 µM", "result": 1.02}, {"measurement": "relative viability", "setting": "[9]; first compound 1.265 µM", "result": 0.983}, {"measurement": "relative viability", "setting": "[9]; first compound 4 µM", "result": 0.972}, {"measurement": "relative viability", "setting": "[10]; first compound 0.04 µM", "result": 0.896}, {"measurement": "relative viability", "setting": "[10]; first compound 0.1265 µM", "result": 0.927}, {"measurement": "relative viability", "setting": "[10]; first compound 0.4 µM", "result": 0.899}, {"measurement": "relative viability", "setting": "[10]; first compound 1.265 µM", "result": 0.822}, {"measurement": "relative viability", "setting": "[10]; first compound 4 µM", "result": 1.03}, {"measurement": "relative viability", "setting": "[11]; first compound 0.04 µM", "result": 0.71}, {"measurement": "relative viability", "setting": "[11]; first compound 0.1265 µM", "result": 0.709}, {"measurement": "relative viability", "setting": "[11]; first compound 0.4 µM", "result": 0.681}, {"measurement": "relative viability", "setting": "[11]; first compound 1.265 µM", "result": 0.497}, {"measurement": "relative viability", "setting": "[11]; first compound 4 µM", "result": 0.64}, {"measurement": "relative viability", "setting": "[12]; first compound 0.04 µM", "result": 1.11}, {"measurement": "relative viability", "setting": "[12]; first compound 0.1265 µM", "result": 0.968}, {"measurement": "relative viability", "setting": "[12]; first compound 0.4 µM", "result": 0.869}, {"measurement": "relative viability", "setting": "[12]; first compound 1.265 µM", "result": 0.947}, {"measurement": "relative viability", "setting": "[12]; first compound 4 µM", "result": 0.978}, {"measurement": "relative viability", "setting": "[13]; first compound 0.04 µM", "result": 1.05}, {"measurement": "relative viability", "setting": "[13]; first compound 0.1265 µM", "result": 1.03}, {"measurement": "relative viability", "setting": "[13]; first compound 0.4 µM", "result": 0.938}, {"measurement": "relative viability", "setting": "[13]; first compound 1.265 µM", "result": 0.962}, {"measurement": "relative viability", "setting": "[13]; first compound 4 µM", "result": 0.853}, {"measurement": "relative viability", "setting": "[14]; first compound 0.04 µM", "result": 0.758}, {"measurement": "relative viability", "setting": "[14]; first compound 0.1265 µM", "result": 0.868}, {"measurement": "relative viability", "setting": "[14]; first compound 0.4 µM", "result": 0.839}, {"measurement": "relative viability", "setting": "[14]; first compound 1.265 µM", "result": 0.825}, {"measurement": "relative viability", "setting": "[14]; first compound 4 µM", "result": 0.527}, {"measurement": "relative viability", "setting": "[15]; first compound 0.04 µM", "result": 1.23}, {"measurement": "relative viability", "setting": "[15]; first compound 0.1265 µM", "result": 1.24}, {"measurement": "relative viability", "setting": "[15]; first compound 0.4 µM", "result": 1.18}, {"measurement": "relative viability", "setting": "[15]; first compound 1.265 µM", "result": 0.977}, {"measurement": "relative viability", "setting": "[15]; first compound 4 µM", "result": 1.28}, {"measurement": "relative viability", "setting": "[16]; first compound 0.04 µM", "result": 0.677}, {"measurement": "relative viability", "setting": "[16]; first compound 0.1265 µM", "result": 0.464}, {"measurement": "relative viability", "setting": "[16]; first compound 0.4 µM", "result": 0.454}, {"measurement": "relative viability", "setting": "[16]; first compound 1.265 µM", "result": 0.427}, {"measurement": "relative viability", "setting": "[16]; first compound 4 µM", "result": 0.307}, {"measurement": "relative viability", "setting": "[17]; first compound 0.04 µM", "result": 0.841}, {"measurement": "relative viability", "setting": "[17]; first compound 0.1265 µM", "result": 0.821}, {"measurement": "relative viability", "setting": "[17]; first compound 0.4 µM", "result": 0.796}, {"measurement": "relative viability", "setting": "[17]; first compound 1.265 µM", "result": 0.599}, {"measurement": "relative viability", "setting": "[17]; first compound 4 µM", "result": 0.901}, {"measurement": "relative viability", "setting": "[18]; first compound 0.04 µM", "result": 0.949}, {"measurement": "relative viability", "setting": "[18]; first compound 0.1265 µM", "result": 1.04}, {"measurement": "relative viability", "setting": "[18]; first compound 0.4 µM", "result": 1.02}, {"measurement": "relative viability", "setting": "[18]; first compound 1.265 µM", "result": 0.936}, {"measurement": "relative viability", "setting": "[18]; first compound 4 µM", "result": 0.734}, {"measurement": "relative viability", "setting": "[19]; first compound 0.04 µM", "result": 1.16}, {"measurement": "relative viability", "setting": "[19]; first compound 0.1265 µM", "result": 0.992}, {"measurement": "relative viability", "setting": "[19]; first compound 1.265 µM", "result": 0.955}, {"measurement": "relative viability", "setting": "[19]; first compound 4 µM", "result": 0.393}, {"measurement": "relative viability", "setting": "[20]; first compound 0.1265 µM", "result": 0.964}, {"measurement": "relative viability", "setting": "[20]; first compound 0.4 µM", "result": 1.1}, {"measurement": "relative viability", "setting": "[20]; first compound 1.265 µM", "result": 0.777}, {"measurement": "relative viability", "setting": "[20]; first compound 4 µM", "result": 0.926}, {"measurement": "relative viability", "setting": "[21]; first compound 0.04 µM", "result": 1.04}, {"measurement": "relative viability", "setting": "[21]; first compound 0.1265 µM", "result": 0.793}, {"measurement": "relative viability", "setting": "[21]; first compound 0.4 µM", "result": 0.867}, {"measurement": "relative viability", "setting": "[21]; first compound 1.265 µM", "result": 0.845}, {"measurement": "relative viability", "setting": "[21]; first compound 4 µM", "result": 0.595}, {"measurement": "relative viability", "setting": "[22]; first compound 0.04 µM", "result": 0.96}, {"measurement": "relative viability", "setting": "[22]; first compound 0.1265 µM", "result": 0.988}, {"measurement": "relative viability", "setting": "[22]; first compound 0.4 µM", "result": 1.01}, {"measurement": "relative viability", "setting": "[22]; first compound 1.265 µM", "result": 0.978}, {"measurement": "relative viability", "setting": "[22]; first compound 4 µM", "result": 0.923}]}]}
